According to ChEMBL document CHEMBL1128824 (Bioorg Med Chem Lett, 1995):
pIC50: −log10 of the molar value.

Columns and labels:
[1] = organism: Homo sapiens; test: Compound was tested for inhibition of phorbol-induced superoxide generation in human neutrophils using neutrophil assay; type: functional
[2] = biological target: T1, Protein kinase C beta type (Homo sapiens, UniProt P05771); test: Inhibition of Protein kinase C beta 2 expressed in Sf-9 cells
[3] = biological target: T2, Protein kinase C delta type (Homo sapiens, UniProt Q05655); test: Inhibition of Protein kinase C delta expressed in Sf-9 cells
T2 sequence (Q05655 whole entry): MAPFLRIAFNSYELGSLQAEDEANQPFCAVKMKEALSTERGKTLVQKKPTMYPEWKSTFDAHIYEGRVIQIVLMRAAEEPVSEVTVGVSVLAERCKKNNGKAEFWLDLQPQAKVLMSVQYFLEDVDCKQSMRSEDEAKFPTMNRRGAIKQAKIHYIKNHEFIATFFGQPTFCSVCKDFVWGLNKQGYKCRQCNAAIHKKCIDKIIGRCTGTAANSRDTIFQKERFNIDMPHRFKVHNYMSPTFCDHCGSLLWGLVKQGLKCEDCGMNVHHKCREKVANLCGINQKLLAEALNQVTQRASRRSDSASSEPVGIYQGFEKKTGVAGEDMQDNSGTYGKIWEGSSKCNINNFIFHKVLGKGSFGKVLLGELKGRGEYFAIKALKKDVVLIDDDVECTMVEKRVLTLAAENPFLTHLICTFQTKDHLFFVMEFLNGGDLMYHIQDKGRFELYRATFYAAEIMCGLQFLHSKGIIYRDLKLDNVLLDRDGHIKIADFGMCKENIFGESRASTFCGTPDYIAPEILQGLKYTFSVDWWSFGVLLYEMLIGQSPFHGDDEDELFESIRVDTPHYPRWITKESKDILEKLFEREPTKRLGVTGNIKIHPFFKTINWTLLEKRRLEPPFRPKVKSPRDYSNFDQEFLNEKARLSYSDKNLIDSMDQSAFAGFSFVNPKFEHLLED

[4] = biological target: T3, Protein kinase C alpha type (Homo sapiens, UniProt P17252); test: Inhibition of Protein kinase C alpha expressed in Sf-9 cells
[5] = biological target: T4, Protein kinase C epsilon type (Homo sapiens, UniProt Q02156); test: Inhibition of protein kinase C epsilon expressed in Sf-9 cells
T4 sequence (Q02156 whole entry): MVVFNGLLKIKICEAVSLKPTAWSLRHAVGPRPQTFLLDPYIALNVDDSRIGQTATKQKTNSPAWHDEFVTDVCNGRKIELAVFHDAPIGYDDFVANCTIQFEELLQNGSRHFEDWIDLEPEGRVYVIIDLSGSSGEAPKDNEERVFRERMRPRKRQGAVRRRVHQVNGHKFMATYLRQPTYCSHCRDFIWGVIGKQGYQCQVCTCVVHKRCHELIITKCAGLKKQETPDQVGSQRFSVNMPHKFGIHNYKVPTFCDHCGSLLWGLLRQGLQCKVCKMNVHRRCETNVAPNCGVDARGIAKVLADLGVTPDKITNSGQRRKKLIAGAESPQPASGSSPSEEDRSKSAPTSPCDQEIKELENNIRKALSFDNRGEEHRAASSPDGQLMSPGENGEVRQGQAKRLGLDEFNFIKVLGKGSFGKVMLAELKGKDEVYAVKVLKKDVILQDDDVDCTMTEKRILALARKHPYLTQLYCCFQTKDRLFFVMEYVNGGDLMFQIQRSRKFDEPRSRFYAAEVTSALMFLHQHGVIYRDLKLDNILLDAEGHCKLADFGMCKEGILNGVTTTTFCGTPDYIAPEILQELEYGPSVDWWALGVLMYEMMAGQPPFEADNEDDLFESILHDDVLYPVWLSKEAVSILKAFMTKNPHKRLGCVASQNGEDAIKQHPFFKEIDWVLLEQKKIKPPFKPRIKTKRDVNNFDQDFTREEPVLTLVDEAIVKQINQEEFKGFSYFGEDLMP

[6] = biological target: T5, Protein kinase C eta type (Homo sapiens, UniProt P24723); test: Inhibition of Protein kinase C eta expressed in Sf-9 cells
T5 sequence (P24723 whole entry): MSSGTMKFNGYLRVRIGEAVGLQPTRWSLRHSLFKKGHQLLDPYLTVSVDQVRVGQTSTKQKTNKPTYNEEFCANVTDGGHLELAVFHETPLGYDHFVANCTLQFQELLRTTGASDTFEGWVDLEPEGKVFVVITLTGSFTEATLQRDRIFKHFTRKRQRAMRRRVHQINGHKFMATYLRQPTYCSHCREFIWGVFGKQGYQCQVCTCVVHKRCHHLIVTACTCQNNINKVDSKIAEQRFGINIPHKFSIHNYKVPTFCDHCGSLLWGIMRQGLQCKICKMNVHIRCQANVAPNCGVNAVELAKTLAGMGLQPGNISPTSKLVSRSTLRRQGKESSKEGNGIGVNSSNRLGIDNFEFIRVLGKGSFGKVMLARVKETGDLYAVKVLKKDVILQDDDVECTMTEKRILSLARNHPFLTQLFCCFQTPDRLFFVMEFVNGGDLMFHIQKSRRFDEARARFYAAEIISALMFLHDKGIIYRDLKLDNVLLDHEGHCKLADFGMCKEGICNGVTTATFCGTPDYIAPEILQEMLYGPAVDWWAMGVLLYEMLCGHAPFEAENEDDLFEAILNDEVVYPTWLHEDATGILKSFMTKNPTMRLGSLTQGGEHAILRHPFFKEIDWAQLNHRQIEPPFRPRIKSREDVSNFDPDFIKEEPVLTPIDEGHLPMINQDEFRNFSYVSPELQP

[7] = organism: Homo sapiens; test: Compound was tested for inhibition of phorbol-induced superoxide generation in human neutrophils after 1 hr pre-incubation at 4 degree C using neutrophil assay; value ranges from 2.8-10; type: functional
[8] = organism: Homo sapiens; test: Compound was tested for inhibition of phorbol-induced superoxide generation in human neutrophils after 1 hr pre-incubation at 4 degree C using neutrophil assay; type: functional
[9] = organism: Homo sapiens; test: Compound was tested for inhibition of phorbol-induced superoxide generation in human neutrophils using neutrophil assay; value ranges from […]-[…]; type: functional
[10] = organism: Homo sapiens; test: Compound was tested for inhibition of phorbol-induced superoxide generation in human neutrophils after 1 hr pre-incubation at 4 degree C using neutrophil assay; value ranges from 0.33-0.85; type: functional
[11] = biological target: T1, Protein kinase C beta type; test: Inhibition of Protein kinase C beta 2 expressed in Sf-9 cells (inactive)
[12] = biological target: T3, Protein kinase C alpha type; test: Inhibition of Protein kinase C alpha expressed in Sf-9 cells (inactive)
[13] = biological target: T4, Protein kinase C epsilon type; test: Inhibition of protein kinase C epsilon expressed in Sf-9 cells (inactive)
[14] = biological target: T2, Protein kinase C delta type; test: Inhibition of Protein kinase C delta expressed in Sf-9 cells (inactive)
[15] = biological target: T5, Protein kinase C eta type; test: Inhibition of Protein kinase C eta expressed in Sf-9 cells (inactive)
[16] = organism: Homo sapiens; test: Compound was tested for inhibition of phorbol-induced superoxide generation in human neutrophils using neutrophil assay; value ranges from 0.8-2.1; type: functional
[17] = organism: Homo sapiens; test: cells; type: functional, organism-based

T1 sequence (P05771 whole entry): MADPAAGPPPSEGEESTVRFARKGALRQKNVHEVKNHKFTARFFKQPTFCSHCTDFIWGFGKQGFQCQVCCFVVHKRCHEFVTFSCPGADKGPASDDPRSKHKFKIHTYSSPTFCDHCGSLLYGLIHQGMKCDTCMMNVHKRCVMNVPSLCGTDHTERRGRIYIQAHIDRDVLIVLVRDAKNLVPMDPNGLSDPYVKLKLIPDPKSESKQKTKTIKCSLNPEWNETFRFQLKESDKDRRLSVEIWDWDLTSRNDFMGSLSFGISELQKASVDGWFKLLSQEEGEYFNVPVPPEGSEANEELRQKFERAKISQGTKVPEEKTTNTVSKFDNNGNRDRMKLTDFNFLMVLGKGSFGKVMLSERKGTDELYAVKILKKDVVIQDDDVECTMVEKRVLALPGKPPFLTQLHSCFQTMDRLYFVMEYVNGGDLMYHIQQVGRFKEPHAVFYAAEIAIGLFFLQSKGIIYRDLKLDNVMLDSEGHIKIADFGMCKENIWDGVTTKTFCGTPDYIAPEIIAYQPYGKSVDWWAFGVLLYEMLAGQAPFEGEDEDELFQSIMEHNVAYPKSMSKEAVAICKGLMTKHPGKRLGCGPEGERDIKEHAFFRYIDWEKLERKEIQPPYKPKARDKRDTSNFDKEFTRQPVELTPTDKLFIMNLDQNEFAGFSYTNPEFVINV

| pIC50 ([1]; Homo sapiens) | pIC50 [2] | pIC50 [3] | pIC50 [4] | pIC50 [5] | pIC50 [6] | Compound | other results |
| --- | --- | --- | --- | --- | --- | --- | --- |
| < 5.00 | 4.66 | 6.51 | 4.77 | 4.60 | 7.30 | O=C(N[C@@H]1CNC[C@H]1OC(=O)c1cc(O)c(C(=O)c2c(O)cccc2C(=O)OCC2CCCCC2)c(O)c1)c1ccc(O)cc1 |  |
| < 5.00 | 6.36 | 7.30 | 5.33 | 4.89 | 6.59 | CC(C)OC(=O)c1cccc(O)c1C(=O)c1c(O)cc(C(=O)O[C@@H]2CCC[C@H]2NC(=O)c2ccc(O)cc2)cc1O |  |
|  | 7.70 | 7.62 | 6.89 | 6.89 | 7.85 | CC(=O)OCOC(=O)c1cccc(O)c1C(=O)c1c(O)cc(C(=O)O[C@@H]2CNC[C@H]2NC(=O)c2ccc(O)cc2)cc1O | pIC50 [8]: < 5.00 |
|  | 6.48 | 7.52 | 6.49 | 6.59 | 7.52 | COC(=O)c1cccc(O)c1C(=O)c1c(O)cc(C(=O)O[C@@H]2CCC[C@H]2NC(=O)c2ccc(O)cc2)cc1O (racemic) | pIC50 [16]: < 6.10; pIC50 [17]: < 5.76 |
|  | 5.74 | 6.60 | 5.38 | 4.70 | 6.40 | COC(=O)c1cccc(O)c1C(=O)c1c(O)cc(C(=O)O[C@@H]2CCC[C@H]2NC(=O)c2ccc(O)cc2)cc1O (stereo in doubt; 8 (+)) | pIC50 [1]: < 5.00 |
|  | 7.40 | 8.30 | 6.68 | 6.52 | 8.40 | COC(=O)c1cccc(O)c1C(=O)c1c(O)cc(C(=O)O[C@@H]2CCC[C@H]2NC(=O)c2ccc(O)cc2)cc1O (stereo in doubt; 8 (-)) | pIC50 [1]: < 5.82 |
| < 5.00 |  |  |  |  |  | O=C(N[C@@H]1CNCCC[C@H]1OC(=O)c1cc(O)c(C(=O)c2c(O)cccc2C(=O)O)c(O)c1)c1ccc(O)cc1 [BALANOL] |  |

The next lines start with the molecule.

| Compound | pIC50 ([1]; Homo sapiens) | pIC50 [2] | pIC50 [3] | pIC50 [4] | pIC50 [5] | pIC50 [6] | other results |
| --- | --- | --- | --- | --- | --- | --- | --- |
| CC(C)(C)C(=O)OCOC(=O)c1cccc(O)c1C(=O)c1c(O)cc(C(=O)O[C@@H]2CNC[C@H]2NC(=O)c2ccc(O)cc2)cc1O |  | 7.70 | 8.00 | 6.80 | 7.47 | 8.40 | pIC50 [7]: < 5.55 |
| COC(=O)c1cccc(O)c1C(=O)c1c(O)cc(C(=O)O[C@@H]2CNC[C@H]2NC(=O)c2ccc(O)cc2)cc1O | < 4.30 | 6.54 | 7.74 | 6.60 | 6.77 | 7.80 |  |
| CCOC(=O)c1cccc(O)c1C(=O)c1c(O)cc(C(=O)O[C@@H]2CNC[C@H]2NC(=O)c2ccc(O)cc2)cc1O | < 5.00 | 6.00 | 7.30 | 5.66 | 5.89 | 7.70 |  |
| O=C(N[C@@H]1CCC[C@H]1OC(=O)c1cc(O)c(C(=O)c2c(O)cccc2C(=O)O)c(O)c1)c1ccc(O)cc1 |  |  |  |  |  |  | pIC50 [8]: < 5.00 |
| O=C(N[C@@H]1CNC[C@H]1OC(=O)c1cc(O)c(C(=O)c2c(O)cccc2C(=O)O)c(O)c1)c1ccc(O)cc1 | < 4.30 |  |  |  |  |  |  |
| CCOC(=O)c1cccc(O)c1C(=O)c1c(O)cc(C(=O)O[C@@H]2CCC[C@H]2NC(=O)c2ccc(O)cc2)cc1O | < 5.59 | 5.80 | 7.17 | 6.04 | 6.18 | 7.28 |  |
| CCCCOC(=O)c1cccc(O)c1C(=O)c1c(O)cc(C(=O)O[C@@H]2CNC[C@H]2NC(=O)c2ccc(O)cc2)cc1O | < 5.00 | 5.66 | 7.10 | 5.51 | 5.43 | 7.40 |  |
| CC(C)(C)C(=O)OCOC(=O)c1cccc(O)c1C(=O)c1c(O)cc(C(=O)O[C@@H]2CCC[C@H]2NC(=O)c2ccc(O)cc2)cc1O |  |  |  |  |  |  | pIC50 [9]: < 5.43; pIC50 [10]: < 6.48; IC50 [11]: Not Active; IC50 [12]: Not Active; IC50 [13]: Not Active; IC50 [14]: Not Active; IC50 [15]: Not Active |
| CC(C)COC(=O)c1cccc(O)c1C(=O)c1c(O)cc(C(=O)O[C@@H]2CNC[C@H]2NC(=O)c2ccc(O)cc2)cc1O | < 5.00 | 4.70 | 6.70 | 4.72 | 5.49 | 7.30 |  |
